≈ marks a conversion by molar mass, not a printed value.
How the values were obtained:
Assay type in all cases: cell-based
S. aureus USA 300 = test: broth microdilution MIC assay, S. aureus USA300; conditions: Staphylococcus aureus; S. aureus USA300 (MRSA); read-out: MIC, S. aureus USA300
Method in brief: (§1)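 Growth inhibition was measured by CLSI-based broth microdilution. Log-phase cultures in Mueller-Hinton broth with divalent cations were seeded at 5×10^5 CFU/mL into 2-fold serial compound dilutions and incubated 16-20 hours at 37° C before the MIC was scored by eye.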

S. aureus USA 600 = test: broth microdilution MIC assay, S. aureus USA600; conditions: Staphylococcus aureus; S. aureus USA600 (MRSA); read-out: MIC, S. aureus USA600
Method in brief: as §1

[1] = test system: E. coli ATCC 25922 (wild-type/QC strain); test: broth microdilution MIC assay, E. coli 25922; conditions: Escherichia coli, ATCC25922; read-out: MIC, E. coli 25922
Method in brief: as §1

[2] = test system: P. aeruginosa 35151 (hyper-permeable strain); test: broth microdilution MIC assay, P. aeruginosa 35151; conditions: Pseudomonas aeruginosa, read-out: MIC, P. aeruginosa 35151
Method in brief: as §1

[3] = test system: S. aureus ATCC 33591 (methicillin-resistant); test: broth microdilution MIC assay, S. aureus 33591; conditions: Staphylococcus aureus, ATCC33591; S. aureus 33591, methicillin-resistant; read-out: MIC, S. aureus 33591
Method in brief: as §1

[4] = test system: P. aeruginosa ATCC 27853 (wild-type/QC strain); test: broth microdilution MIC assay, P. aeruginosa 27853; conditions: Pseudomonas aeruginosa, ATCC27853; read-out: MIC, P. aeruginosa 27853
Method in brief: as §1

P. aeruginosa Paeβ-17 = test: broth microdilution MIC assay, P. aeruginosa Paeβ-17; conditions: Pseudomonas aeruginosa, read-out: MIC, P. aeruginosa Paeβ-17
Method in brief: as §1

[5] = test system: P. aeruginosa ΔmexAB-OprM (an efflux pump knockout); test: broth microdilution MIC assay, P. aeruginosa ΔmexAB-OprM; conditions: Pseudomonas aeruginosa, read-out: MIC, P. aeruginosa ΔmexAB-OprM
Method in brief: as §1

C[C@@H](O)[C@H]1C(=O)N2C(C(=O)O)=C(S[C@H]3C[C@H](NC4CCNCC4)C3)[C@H](C)[C@H]12 [Example 38, (4R,5S,6S)-6-((R)-1-hydroxyethyl)-4-methyl-7-oxo-3-(((1R,3R)-3-(piperidin-4-ylamino)cyclobutyl)thio)-1-azabicyclo[3.2.0]hept-2-ene-2-carboxylic acid]
MIC (S. aureus USA 300): 1 to 4 µg/mL (≈ 2.53 to 10.1 µM)
MIC (S. aureus USA 600): 1 to 4 µg/mL (≈ 2.53 to 10.1 µM)
MIC [1]: < 1 µg/mL
MIC [2]: < 1 µg/mL
MIC [3]: 8 to 32 µg/mL (≈ 20.2 to 80.9 µM)
MIC [4]: 8 to 32 µg/mL (≈ 20.2 to 80.9 µM)
MIC (P. aeruginosa Paeβ-17): 8 to 32 µg/mL (≈ 20.2 to 80.9 µM)
MIC [5]: 1 to 4 µg/mL (≈ 2.53 to 10.1 µM)

C[C@@H](O)[C@H]1C(=O)N2C(C(=O)O)=C(SC3CN(C[C@@H]4CCN(C(=N)N)C4)C3)[C@H](C)[C@H]12 [Example 39, (4R,5S,6S)-3-((1-(((S)-1-carbamimidoylpyrrolidin-3-yl)methyl)azetidin-3-yl)thio)-6-((R)-1-hydroxyethyl)-4-methyl-7-oxo-1-azabicyclo[3.2.0]hept-2-ene-2-carboxylic acid]
MIC (S. aureus USA 300): 1 to 4 µg/mL (≈ 2.36 to 9.44 µM)
MIC (S. aureus USA 600): 1 to 4 µg/mL (≈ 2.36 to 9.44 µM)
MIC [1]: < 1 µg/mL
MIC [2]: 1 to 4 µg/mL (≈ 2.36 to 9.44 µM)
MIC [3]: 8 to 32 µg/mL (≈ 18.9 to 75.6 µM)
MIC [4]: 8 to 32 µg/mL (≈ 18.9 to 75.6 µM)
MIC (P. aeruginosa Paeβ-17): > 32 µg/mL
MIC [5]: 1 to 4 µg/mL (≈ 2.36 to 9.44 µM)

C[C@@H](O)[C@H]1C(=O)N2C(C(=O)O)=C(SC3CN(CC4CCN(C)CC4)C3)[C@H](C)[C@H]12 [Example 40, (4R,5S,6S)-6-((R)-1-hydroxyethyl)-4-methyl-3-((1-((1-methylpiperidin-4-yl)methyl)azetidin-3-yl)thio)-7-oxo-1-azabicyclo[3.2.0]hept-2-ene-2-carboxylic acid]
MIC (S. aureus USA 300): 1 to 4 µg/mL (≈ 2.44 to 9.77 µM)
MIC (S. aureus USA 600): 1 to 4 µg/mL (≈ 2.44 to 9.77 µM)
MIC [1]: < 1 µg/mL
MIC [2]: < 1 µg/mL
MIC [3]: 8 to 32 µg/mL (≈ 19.5 to 78.1 µM)
MIC [4]: 8 to 32 µg/mL (≈ 19.5 to 78.1 µM)
MIC (P. aeruginosa Paeβ-17): 8 to 32 µg/mL (≈ 19.5 to 78.1 µM)
MIC [5]: 1 to 4 µg/mL (≈ 2.44 to 9.77 µM)

C[C@@H](O)[C@H]1C(=O)N2C(C(=O)O)=C(S[C@@H]3CCN(C[C@H]4CC[C@H](CNC(=N)N)CC4)C3)[C@H](C)[C@H]12 [Example 41, (4R,5S,6S)-3-(((R)-1-(((1R,4R)-4-(guanidinomethyl)cyclohexyl)methyl)pyrrolidin-3-yl)thio)-6-((R)-1-hydroxyethyl)-4-methyl-7-oxo-1-azabicyclo[3.2.0]hept-2-ene-2-carboxylic acid]
MIC (S. aureus USA 300): 1 to 4 µg/mL (≈ 2.08 to 8.34 µM)
MIC (S. aureus USA 600): 1 to 4 µg/mL (≈ 2.08 to 8.34 µM)
MIC [1]: < 1 µg/mL
MIC [2]: < 1 µg/mL
MIC [3]: 1 to 4 µg/mL (≈ 2.08 to 8.34 µM)
MIC [4]: 1 to 4 µg/mL (≈ 2.08 to 8.34 µM)
MIC (P. aeruginosa Paeβ-17): 8 to 32 µg/mL (≈ 16.7 to 66.7 µM)
MIC [5]: 1 to 4 µg/mL (≈ 2.08 to 8.34 µM)

C[C@@H](O)[C@H]1C(=O)N2C(C(=O)O)=C(SC3CN(C4CCN(C)CC4)C3)[C@H](C)[C@H]12 [Example 42, (4R,5S,6S)-6-((R)-1-hydroxyethyl)-4-methyl-3-((1-(1-methylpiperidin-4-yl)azetidin-3-yl)thio)-7-oxo-1-azabicyclo[3.2.0]hept-2-ene-2-carboxylic acid]
MIC (S. aureus USA 300): 1 to 4 µg/mL (≈ 2.53 to 10.1 µM)
MIC (S. aureus USA 600): 1 to 4 µg/mL (≈ 2.53 to 10.1 µM)
MIC [1]: < 1 µg/mL
MIC [2]: < 1 µg/mL
MIC [3]: 8 to 32 µg/mL (≈ 20.2 to 80.9 µM)
MIC [4]: 8 to 32 µg/mL (≈ 20.2 to 80.9 µM)
MIC (P. aeruginosa Paeβ-17): 8 to 32 µg/mL (≈ 20.2 to 80.9 µM)
MIC [5]: 8 to 32 µg/mL (≈ 20.2 to 80.9 µM)

C[C@@H](O)[C@H]1C(=O)N2C(C(=O)O)=C(S[C@H]3C[C@@H](NC4CCN(C(=N)N)CC4)C3)[C@H](C)[C@H]12 [Example 43, (4R,5S,6S)-3-(((1S,3S)-3-((1-carbamimidoylpiperidin-4-yl)amino)cyclobutyl)thio)-6-((R)-1-hydroxyethyl)-4-methyl-7-oxo-1-azabicyclo[3.2.0]hept-2-ene-2-carboxylic acid]
MIC (S. aureus USA 300): < 1 µg/mL
MIC (S. aureus USA 600): < 1 µg/mL
MIC [1]: < 1 µg/mL
MIC [2]: < 1 µg/mL
MIC [3]: 1 to 4 µg/mL (≈ 2.29 to 9.14 µM)
MIC [4]: 1 to 4 µg/mL (≈ 2.29 to 9.14 µM)
MIC (P. aeruginosa Paeβ-17): 8 to 32 µg/mL (≈ 18.3 to 73.1 µM)
MIC [5]: 1 to 4 µg/mL (≈ 2.29 to 9.14 µM)

C[C@@H](O)[C@H]1C(=O)N2C(C(=O)O)=C(S[C@H]3C[C@@H](NC4CCNCC4)C3)[C@H](C)[C@H]12 [Example 44, (4R,5S,6S)-6-((R)-1-hydroxyethyl)-4-methyl-7-oxo-3-(((1S,3S)-3-(piperidin-4-ylamino)cyclobutyl)thio)-1-azabicyclo[3.2.0]hept-2-ene-2-carboxylic acid]
MIC (S. aureus USA 300): 1 to 4 µg/mL (≈ 2.53 to 10.1 µM)
MIC (S. aureus USA 600): 1 to 4 µg/mL (≈ 2.53 to 10.1 µM)
MIC [1]: < 1 µg/mL
MIC [2]: < 1 µg/mL
MIC [3]: 8 to 32 µg/mL (≈ 20.2 to 80.9 µM)
MIC [4]: 8 to 32 µg/mL (≈ 20.2 to 80.9 µM)
MIC (P. aeruginosa Paeβ-17): 8 to 32 µg/mL (≈ 20.2 to 80.9 µM)
MIC [5]: 1 to 4 µg/mL (≈ 2.53 to 10.1 µM)

C[C@@H](O)[C@H]1C(=O)N2C(C(=O)O)=C(S[C@@H]3CCN(C[C@H]4CC[C@@H](CN)CC4)C3)[C@H](C)[C@H]12 [Example 45, (4R,5S,6S)-3-(((R)-1-(((1S,4S)-4-(aminomethyl)cyclohexyl)methyl)pyrrolidin-3-yl)thio)-6-((R)-1-hydroxyethyl)-4-methyl-7-oxo-1-azabicyclo[3.2.0]hept-2-ene-2-carboxylic acid]
MIC (S. aureus USA 300): 1 to 4 µg/mL (≈ 2.29 to 9.14 µM)
MIC (S. aureus USA 600): 1 to 4 µg/mL (≈ 2.29 to 9.14 µM)
MIC [1]: < 1 µg/mL
MIC [2]: < 1 µg/mL
MIC [3]: 1 to 4 µg/mL (≈ 2.29 to 9.14 µM)
MIC [4]: 1 to 4 µg/mL (≈ 2.29 to 9.14 µM)
MIC (P. aeruginosa Paeβ-17): 8 to 32 µg/mL (≈ 18.3 to 73.1 µM)
MIC [5]: 1 to 4 µg/mL (≈ 2.29 to 9.14 µM)

C[C@@H](O)[C@H]1C(=O)N2C(C(=O)O)=C(SC3CN(C[C@H]4CCN(C(=N)N)C4)C3)[C@H](C)[C@H]12 [Example 46, (4R,5S,6S)-3-((1-(((R)-1-carbamimidoylpyrrolidin-3-yl)methyl)azetidin-3-yl)thio)-6-((R)-1-hydroxyethyl)-4-methyl-7-oxo-1-azabicyclo[3.2.0]hept-2-ene-2-carboxylic acid]
MIC (S. aureus USA 300): 1 to 4 µg/mL (≈ 2.36 to 9.44 µM)
MIC (S. aureus USA 600): 1 to 4 µg/mL (≈ 2.36 to 9.44 µM)
MIC [1]: < 1 µg/mL
MIC [2]: < 1 µg/mL
MIC [3]: 1 to 4 µg/mL (≈ 2.36 to 9.44 µM)
MIC [4]: 1 to 4 µg/mL (≈ 2.36 to 9.44 µM)
MIC (P. aeruginosa Paeβ-17): 8 to 32 µg/mL (≈ 18.9 to 75.6 µM)
MIC [5]: 1 to 4 µg/mL (≈ 2.36 to 9.44 µM)

CNC[C@H]1CC[C@H](CN2CC(SC3=C(C(=O)O)N4C(=O)[C@H]([C@@H](C)O)[C@H]4[C@H]3C)C2)CC1 [Example 47, (4R,5S,6S)-6-((R)-1-hydroxyethyl)-4-methyl-3-((1-(((1r,4R)-4-((methylamino)methyl)cyclohexyl)methyl)azetidin-3-yl)thio)-7-oxo-1-azabicyclo[3.2.0]hept-2-ene-2-carboxylic acid]
MIC (S. aureus USA 300): 1 to 4 µg/mL (≈ 2.29 to 9.14 µM)
MIC (S. aureus USA 600): 1 to 4 µg/mL (≈ 2.29 to 9.14 µM)
MIC [1]: < 1 µg/mL
MIC [2]: < 1 µg/mL
MIC [3]: 1 to 4 µg/mL (≈ 2.29 to 9.14 µM)
MIC [4]: 1 to 4 µg/mL (≈ 2.29 to 9.14 µM)
MIC (P. aeruginosa Paeβ-17): 8 to 32 µg/mL (≈ 18.3 to 73.1 µM)
MIC [5]: 1 to 4 µg/mL (≈ 2.29 to 9.14 µM)

C[C@@H](O)[C@H]1C(=O)N2C(C(=O)O)=C(S[C@H]3C[C@H](NC4CCN(C(=N)N)CC4)C3)[C@H](C)[C@H]12 [Example 48, (4R,5S,6S)-3-(((1R,3R)-3-((1-carbamimidoylpiperidin-4-yl)amino)cyclobutyl)thio)-6-((R)-1-hydroxyethyl)-4-methyl-7-oxo-1-azabicyclo[3.2.0]hept-2-ene-2-carboxylic acid]
MIC (S. aureus USA 300): 1 to 4 µg/mL (≈ 2.29 to 9.14 µM)
MIC (S. aureus USA 600): 1 to 4 µg/mL (≈ 2.29 to 9.14 µM)
MIC [1]: < 1 µg/mL
MIC [2]: < 1 µg/mL
MIC [3]: 8 to 32 µg/mL (≈ 18.3 to 73.1 µM)
MIC [4]: 8 to 32 µg/mL (≈ 18.3 to 73.1 µM)
MIC (P. aeruginosa Paeβ-17): 8 to 32 µg/mL (≈ 18.3 to 73.1 µM)
MIC [5]: 1 to 4 µg/mL (≈ 2.29 to 9.14 µM)

C[C@@H](O)[C@H]1C(=O)N2C(C(=O)O)=C(S[C@@H]3CC[C@H](NC4CCN(C(=N)N)CC4)C3)[C@H](C)[C@H]12 [Example 49, (4R,5S,6S)-3-(((1R,3S)-3-((1-carbamimidoylpiperidin-4-yl)amino)cyclopentyl)thio)-6-((R)-1-hydroxyethyl)-4-methyl-7-oxo-1-azabicyclo[3.2.0]hept-2-ene-2-carboxylic acid]
MIC (S. aureus USA 300): 1 to 4 µg/mL (≈ 2.21 to 8.86 µM)
MIC (S. aureus USA 600): 1 to 4 µg/mL (≈ 2.21 to 8.86 µM)
MIC [1]: < 1 µg/mL
MIC [2]: < 1 µg/mL
MIC [3]: 1 to 4 µg/mL (≈ 2.21 to 8.86 µM)
MIC [4]: 1 to 4 µg/mL (≈ 2.21 to 8.86 µM)
MIC (P. aeruginosa Paeβ-17): 8 to 32 µg/mL (≈ 17.7 to 70.9 µM)
MIC [5]: 1 to 4 µg/mL (≈ 2.21 to 8.86 µM)
